Source: PubChem BioAssay (NCI)
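All cell lines were grown in 96-well plates and treated with compound for 48 hours. Abbreviation: GI50, concentration required for 50% inhibition of growth. At the TGI there is no net growth.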

Legend:
Experiment in all cases: DTP human tumour cell line panel, 48 h
NCI-H226 lung = test system: NCI-H226 lung
NCI-H23 lung = test system: NCI-H23 lung
NCI-H460 lung = test system: NCI-H460 lung
NCI-H522 lung = test system: NCI-H522 lung
OVCAR-3 ovarian = test system: OVCAR-3 ovarian
OVCAR-4 ovarian = test system: OVCAR-4 ovarian
OVCAR-5 ovarian = test system: OVCAR-5 ovarian
OVCAR-8 ovarian = test system: OVCAR-8 ovarian
PC-3 prostate = test system: PC-3 prostate
RPMI-8226 leukemia = test system: RPMI-8226 leukemia
RXF 393 renal = test system: RXF 393 renal
SF-268 CNS = test system: SF-268 CNS
SF-295 CNS = test system: SF-295 CNS
SF-539 CNS = test system: SF-539 CNS
SK-MEL-2 melanoma = test system: SK-MEL-2 melanoma
SK-MEL-28 melanoma = test system: SK-MEL-28 melanoma
SK-MEL-5 melanoma = test system: SK-MEL-5 melanoma
SK-OV-3 ovarian = test system: SK-OV-3 ovarian
SN12C renal = test system: SN12C renal
SNB-19 CNS = test system: SNB-19 CNS
SNB-75 CNS = test system: SNB-75 CNS
SR leukemia = test system: SR leukemia
SW-620 colon = test system: SW-620 colon
T-47D breast = test system: T-47D breast
TK-10 renal = test system: TK-10 renal
U251 CNS = test system: U251 CNS
UACC-257 melanoma = test system: UACC-257 melanoma
UACC-62 melanoma = test system: UACC-62 melanoma
UO-31 renal = test system: UO-31 renal

SMILES: C[C@H](Nc1nc(NCCc2ccccc2)nc2ccccc12)c1ccccc1
- GI50 (NCI-H226 lung): 1.45 µM
- TGI (NCI-H226 lung): 3.04 µM
- GI50 (NCI-H23 lung): 1.44 µM
- TGI (NCI-H23 lung): 2.9 µM
- GI50 (NCI-H460 lung): 1.35 µM
- TGI (NCI-H460 lung): 2.83 µM
- GI50 (NCI-H522 lung): 1.5 µM
- TGI (NCI-H522 lung): 3.09 µM
- GI50 (OVCAR-3 ovarian): 1.34 µM
- TGI (OVCAR-3 ovarian): 2.98 µM
- GI50 (OVCAR-4 ovarian): 1.68 µM
- TGI (OVCAR-4 ovarian): 5.9 µM
- GI50 (OVCAR-5 ovarian): 1.63 µM
- TGI (OVCAR-5 ovarian): 3.42 µM
- GI50 (OVCAR-8 ovarian): 1.4 µM
- TGI (OVCAR-8 ovarian): 2.82 µM
- GI50 (PC-3 prostate): 1.37 µM
- TGI (PC-3 prostate): 3.27 µM
- GI50 (RPMI-8226 leukemia): 1.4 µM
- TGI (RPMI-8226 leukemia): 4.17 µM
- GI50 (RXF 393 renal): 1.07 µM
- TGI (RXF 393 renal): 2.31 µM
- GI50 (SF-268 CNS): 2.07 µM
- TGI (SF-268 CNS): 6.31 µM
- GI50 (SF-295 CNS): 1.46 µM
- TGI (SF-295 CNS): 2.79 µM
- GI50 (SF-539 CNS): 1.7 µM
- TGI (SF-539 CNS): 3.13 µM
- GI50 (SK-MEL-2 melanoma): 1.37 µM
- TGI (SK-MEL-2 melanoma): 2.71 µM
- GI50 (SK-MEL-28 melanoma): 1.47 µM
- TGI (SK-MEL-28 melanoma): 2.8 µM
- GI50 (SK-MEL-5 melanoma): 1.37 µM
- TGI (SK-MEL-5 melanoma): 2.66 µM
- GI50 (SK-OV-3 ovarian): 1.56 µM
- TGI (SK-OV-3 ovarian): 3 µM
- GI50 (SN12C renal): 1.76 µM
- TGI (SN12C renal): 4.13 µM
- GI50 (SNB-19 CNS): 2.02 µM
- TGI (SNB-19 CNS): 5.56 µM
- GI50 (SNB-75 CNS): 0.563 µM
- TGI (SNB-75 CNS): 3.49 µM
- GI50 (SR leukemia): 1.46 µM
- TGI (SR leukemia): 3.51 µM
- GI50 (SW-620 colon): 1.4 µM
- TGI (SW-620 colon): 2.88 µM
- GI50 (T-47D breast): 1.42 µM
- TGI (T-47D breast): 3.66 µM
- GI50 (TK-10 renal): 1.93 µM
- TGI (TK-10 renal): 5.44 µM
- GI50 (U251 CNS): 1.44 µM
- TGI (U251 CNS): 2.83 µM
- GI50 (UACC-257 melanoma): 1.52 µM
- TGI (UACC-257 melanoma): 3.04 µM
- GI50 (UACC-62 melanoma): 1.53 µM
- TGI (UACC-62 melanoma): 2.9 µM
- GI50 (UO-31 renal): 1.22 µM
- TGI (UO-31 renal): 2.53 µM
